# System: HCV 1b RLuc cells (dicistronic genotype 1b Con1 replicon)
# Test: Renilla luciferase (RLuc)-based HCV replicon reporter assay
# Assay type: cell-based, HCV genotype 1b
# Details: Hepatitis C virus, 72 h, HCV 1b RLuc replicon, 72 hours; read-out: Activity (antiviral potency [EC50])
# Method in brief: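 EC50 values were calculated by non-linear regression of Renilla luciferase signal from lysed cells after 72 h of compound exposure. Cells harboured a genotype 1b Con1 dicistronic replicon encoding RLuc. Compounds were serially diluted in DMSO from 10 mM stocks into culture media.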
row,Structure (SMILES),EC50 [nM]
1,COC(=O)N[C@H](C(=O)N1CCC[C@H]1c1ncc(-c2ccc3cc(-c4ccc5nc([C@@H]6CCCN6C(=O)[C@@H](NC(=O)OC)C(C)C)[nH]c5c4)ccc3c2)[nH]1)C(C)C,0.0067
2,C=C1C[C@@H](c2ncc(-c3ccc(-c4ccc5cc(-c6cnc([C@@H]7CCCN7C(=O)[C@@H](NC(=O)OC)C(C)C)[nH]6)ccc5c4)cc3)[nH]2)N(C(=O)[C@@H](NC(=O)OC)C(C)C)C1,0.0113
3,COC(=O)N[C@H](C(=O)N1CC2(CC2)C[C@H]1c1ncc(-c2ccc(-c3ccc4cc(-c5cnc([C@@H]6[C@H]7CC[C@H](C7)N6C(=O)[C@@H](NC(=O)OC)C6CC6)[nH]5)ccc4c3)cc2)[nH]1)C(C)C,0.0534
4,COC(=O)N[C@@H](CCOC(F)F)C(=O)N1[C@@H]2CC[C@@H](C2)[C@H]1c1ncc(-c2ccc(-c3ccc4cc(-c5cnc([C@@H]6CC7(CC7)CN6C(=O)[C@@H](NC(=O)OC)C(C)C)[nH]5)ccc4c3)cc2)[nH]1,0.008
5,COC(=O)N[C@H](C(=O)N1CC2(CC2)C[C@H]1c1ncc(-c2ccc3c(c2)C2(CC2)c2cc(-c4ccc5nc([C@@H]6[C@H]7CC[C@H](C7)N6C(=O)[C@@H](NC(=O)OC)C(C)C)[nH]c5c4)ccc2-3)[nH]1)C(C)C,0.0073
6,COC(=O)N[C@H](C(=O)N1CCC[C@H]1c1ncc(-c2ccc(-c3ccc4cc(-c5cnc([C@@H]6CCCN6C(=O)[C@@H](NC(=O)OC)C(C)C)[nH]5)ccc4c3)cc2)[nH]1)C(C)C,0.0047
7,COC(=O)N[C@H](C(=O)N1CCC[C@H]1c1ncc(-c2ccc3cc(-c4ccc(-c5cnc([C@@H]6C[C@@H](Cc7ccccc7)CN6C(=O)[C@@H](NC(=O)OC)C(C)C)[nH]5)cc4)ccc3c2)[nH]1)C(C)C,0.014
8,COC(=O)N[C@H](C(=O)N1[C@@H]2CC[C@@H](C2)[C@H]1c1ncc(-c2ccc3cc(-c4ccc(-c5cnc([C@@H]6CC7(CC7)CN6C(=O)[C@@H](NC(=O)OC)C6CC6)[nH]5)cc4)ccc3c2)[nH]1)C(C)C,0.286
9,COC(=O)N[C@H](C(=O)N1CCC[C@H]1c1ncc(-c2ccc(-c3ccc(-c4cnc([C@@H]5SCCN5C(=O)[C@@H](NC(=O)OC)C(C)C)[nH]4)cc3)cc2)[nH]1)C(C)C,0.0171
10,COC(=O)N[C@H](C(=O)N1CCC[C@H]1c1nc2ccc(-c3ccc(-c4ccc(-c5cnc([C@@H]6[C@H]7CC[C@H](C7)N6C(=O)[C@@H](NC(=O)OC)C(C)C)[nH]5)cc4)cc3)cc2[nH]1)C(C)C,0.0213
11,COC(=O)N[C@H](C(=O)N1CCC[C@H]1c1ncc(-c2cc3c(C)c4sc(-c5cnc([C@@H]6CCCN6C(=O)[C@@H](NC(=O)OC)C(C)C)[nH]5)cc4c(C)c3s2)[nH]1)C(C)C,0.0166
12,COC(=O)N[C@H](C(=O)N1CC2(CC2)C[C@H]1c1ncc(-c2ccc3cc(-c4ccc(-c5cnc([C@@H]6[C@H]7CC[C@H](C7)N6C(=O)[C@@H](NC(=O)OC)C6CCOCC6)[nH]5)cc4)ccc3c2)[nH]1)C(C)C,0.0115
13,COC(=O)N[C@@H](C)C(=O)N1CCC[C@H]1c1ncc(-c2ccc3cc(-c4ccc5cc(-c6cnc([C@@H]7[C@H]8CC[C@H](C8)N7C(=O)[C@H](C)NC(=O)OC)[nH]6)ccc5c4)ccc3c2)[nH]1,2.61
14,COC(=O)NC(C(=O)N1CCC[C@H]1c1ncc(-c2ccc(-c3ccc4cc(-c5cnc([C@@H]6CCCN6C(=O)[C@@H](NC(=O)OC)C(C)C)[nH]5)ccc4c3)cc2)[nH]1)c1ccsc1 (some centres unmarked),0.0197
15,COC(=O)N[C@H](C(=O)N1CCC[C@H]1c1nc2ccc(C#CC#Cc3ccc4nc([C@@H]5CCCN5C(=O)[C@@H](NC(=O)OC)C(C)C)[nH]c4c3)cc2[nH]1)C(C)C,0.0261
16,COC(=O)NC(C(=O)N1CCS[C@H]1c1nc(-c2cc3c(OC)c4sc(-c5c[nH]c([C@@H]6SCCN6C(=O)C(NC(=O)OC)c6ccccc6)n5)cc4c(OC)c3s2)c[nH]1)c1ccccc1 (some centres unmarked),4.37
17,COC(=O)N[C@H](C(=O)N1CCC[C@H]1c1ncc(-c2ccc3cc(-c4ccc(-c5cnc([C@@H]6C[C@H](c7ccccc7)CN6C(=O)[C@@H](NC(=O)OC)C(C)C)[nH]5)cc4)ccc3c2)[nH]1)C(C)C,0.0189

# From US8822430B2 (Gilead Sciences, Inc., priority 2009, dated 2014)
